Where two headings read alike, the source gives them in different places.
Tests used:
SARS-CoV-2 [1] = experiment: microbe, parasite or virus in culture; type: cell-based
SARS-CoV-2 [2] = type: cell-based
SARS-CoV-2 M^Pro [3] = target: T1, SARS-CoV-2 M^Pro (Severe acute respiratory syndrome coronavirus 2, UniProt P0DTD1); type: cell-based
SARS-CoV-2 [4] = type: cell-based; details: A549/ACE2 cells; tested 80 nM to 10 μM
SARS-CoV-2 M^Pro [5] = target: T1, SARS-CoV-2 M^Pro; experiment: biochemical; type: biochemical
[6] = Severe acute respiratory syndrome coronavirus 2, Vero C1008, Vero E6 cells, plaque reduction, read-out: antiviral EC50
[7] = Vero E6 cells, tested 80 nM to 10 μM, two repeats

Q: Which EC50 (SARS-CoV-2 [1]; [6]) does the source give for `CC(C)[C@H](NC(=O)OCc1ccccc1)C(=O)N[C@@H](CC1CCCCC1)C(=O)N[C@H](C=O)C[C@@H]1CCNC1=O` [MPI5, benzyl ((S)-1-(((S)-3-cyclohexyl-1-oxo-1-(((S)-1-oxo-3-((S)-2-oxopyrrolidin-3-yl)propan-2-yl)amino)propan-2-yl)amino)-3-methyl-1-oxobutan-2-yl)carbamate] here?
A: 73 nM

Q: And the “concentration of complete abolition of SARS-CoV-2-induced CPE” value (“concentration” below) (SARS-CoV-2 [2]; [7])?
A: 5 µM

Q: With `C[C@@H](OC(C)(C)C)[C@H](NC(=O)OCc1ccccc1)C(=O)N[C@@H](CC1CCCCC1)C(=O)N[C@H](C=O)C[C@@H]1CCNC1=O` [MPI8, benzyl ((2S,3R)-3-(tert-butoxy)-1-(((S)-3-cyclohexyl-1-oxo-1-(((S)-1-oxo-3-((S)-2-oxopyrrolidin-3-yl)propan-2-yl)amino)propan-2-yl)amino)-1-oxobutan-2-yl)carbamate] as the compound, how does the “suppression of M^Pro-eGFP toxicity / promotion of cell survival and M^Pro-eGFP expression” value (SARS-CoV-2 M^Pro [3]) read?
A: effectively suppressed

Q: With `CC(C)C[C@H](NC(=O)OCc1ccccc1)C(=O)N[C@@H](CC1CCNC1=O)C(O)S(=O)(=O)O` (stereo partly drawn) [GC376, (2S)-2-((S)-2-(((benzyloxy)carbonyl)amino)-4-methylpentanamido)-1-hydroxy-3-(2-oxopyrrolidin-3-yl)propane-1-sulfonic acid, reference compound] as the compound, how does the “concentration” value (SARS-CoV-2 [2]; [7]) read?
A: 10 µM

Q: For `C[C@@H](OC(C)(C)C)[C@H](NC(=O)OCc1ccccc1)C(=O)N[C@@H](Cc1ccccc1)C(=O)N[C@H](C=O)C[C@@H]1CCNC1=O` [MPI7, benzyl ((2S,3R)-3-(tert-butoxy)-1-oxo-1-(((S)-1-oxo-1-(((S)-1-oxo-3-((S)-2-oxopyrrolidin-3-yl)propan-2-yl)amino)-3-phenylpropan-2-yl)amino)butan-2-yl)carbamate], which EC50 (SARS-CoV-2 [1]; [6]) is on record?
A: 170 nM

Q: And the “concentration” value (SARS-CoV-2 [2]; [7])?
A: 2.5 to 5 µM

Q: What about the “concentration” value (SARS-CoV-2 [4]) of the same compound?
A: not able to completely abolish CPE at all tested conditions

Q: For `CC(C)C[C@H](NC(=O)[C@@H](NC(=O)OCc1ccccc1)[C@@H](C)OC(C)(C)C)C(=O)N[C@H](C=O)C[C@@H]1CCNC1=O` [MPI6, benzyl ((2S,3R)-3-(tert-butoxy)-1-(((S)-4-methyl-1-oxo-1-(((S)-1-oxo-3-((S)-2-oxopyrrolidin-3-yl)propan-2-yl)amino)pentan-2-yl)amino)-1-oxobutan-2-yl)carbamate], which EC50 (SARS-CoV-2 [1]; Severe acute respiratory syndrome coronavirus 2, Vero C1008, read-out: antiviral EC50, Vero E6 cells, plaque reduction) is on record?
A: 209 nM

Q: `O=C[C@H](C[C@@H]1CCNC1=O)NC(=O)[C@H](CC1CCCCC1)NC(=O)c1cc2ccccc2[nH]1` [MPI10, N-((S)-3-cyclohexyl-1-oxo-1-(((S)-1-oxo-3-((S)-2-oxopyrrolidin-3-yl)propan-2-yl)amino)propan-2-yl)-1H-indole-2-carboxamide, reference compound] was tested. Which “concentration” value (SARS-CoV-2 [2]; [7]) did it give?
A: 10 µM

Q: What about the “concentration” value (SARS-CoV-2 [4]) of the same compound?
A: potency similar to that shown in Vero E6 cells

Q: For `CC(C)C[C@H](NC(=O)[C@@H](NC(=O)OCc1ccccc1)C(C)C)C(=O)N[C@H](C=O)C[C@@H]1CCNC1=O` [MPI3, benzyl ((S)-3-methyl-1-(((S)-4-methyl-1-oxo-1-(((S)-1-oxo-3-((S)-2-oxopyrrolidin-3-yl)propan-2-yl)amino)pentan-2-yl)amino)-1-oxobutan-2-yl)carbamate], which “concentration” value (SARS-CoV-2 [2]) is on record?
A: not able to completely prevent CPE at all tested concentrations

Q: How did the IC50 (SARS-CoV-2 M^Pro [5]; read-out: Enzymatic IC50) turn out when `C=CC(=O)N(CCC(N)=O)NC(=O)[C@H](CC(C)C)NC(=O)[C@@H](NC(=O)OCc1ccccc1)C(C)C` [MPI51, benzyl ((S)-1-(((S)-1-(2-acryloyl-2-(3-amino-3-oxopropyl)hydrazineyl)-4-methyl-1-oxopentan-2-yl)amino)-3-methyl-1-oxobutan-2-yl)carbamate] was run?
A: 36 nM

Q: With `C=CC(=O)N(CCC(N)=O)NC(=O)[C@H](CC(C)C)NC(=O)[C@@H](NC(=O)OCc1ccccc1)[C@@H](C)OC(C)(C)C` [MPI50, benzyl ((2S,3R)-1-(((S)-1-(2-acryloyl-2-(3-amino-3-oxopropyl)hydrazineyl)-4-methyl-1-oxopentan-2-yl)amino)-3-(tert-butoxy)-1-oxobutan-2-yl)carbamate] as the compound, how does the IC50 (SARS-CoV-2 M^Pro [5]) read?
A: 109 nM
